# Measured values from patent US8455473B2, “Composition and method for irrigation of a prepared dental root canal” (The University of British Columbia, priority 2008, dated 2013).
# What was measured:
# [1] = tested on: Enterococcus faecalis A197A; format: cell-based; details: all exposure times (5 seconds, 30 seconds, 3 minutes); detection level 99.995% killing
# Protocol: The antibacterial activity of the composition was evaluated by exposing a planktonic culture (in suspension) of Enterococcus faecalis A197A, a resistant bacterial species often isolated from treatment resistant endodontic infections (root canal infections). In the evaluation, cultures were exposed for 5 seconds, 30 seconds, and 3 minutes. Detection level was at 99.995% killing.
# [2] = tested on: enterococci; details: saturated calcium hydroxide solution (pH≧12.5), in vitro; cited from earlier work
# [3] = tested on: yeasts; details: saturated calcium hydroxide solution (pH≧12.5), in vitro; cited from earlier work
SMILES,survival of Enterococcus faecalis A197A (cfu %) [1],time to kill enterococci [2],time to kill yeasts [3]
"O=C(O)CN(CCN(CC(=O)O)CC(=O)O)CC(=O)O [17% EDTA, ethylenediamine tetraacetic acid]",100%,–,–
"[Ca+2].[OH-].[OH-] [calcium hydroxide, Calcium hydroxide]",–,≤ 20 min,≤ 6 h
